Reference: patent publication US5968487A (L'Oreal, priority 1996, dated 1999)

Molecular target: T1, human melanocyte tyrosinase (Homo sapiens, UniProt P14679)
T1 construct: endogenous in cells; host or cells: cultured human melanocytes (Triton X-100 / ultrasound extract after 3 days' culture with the compound)
T1 sequence (P14679 19-529): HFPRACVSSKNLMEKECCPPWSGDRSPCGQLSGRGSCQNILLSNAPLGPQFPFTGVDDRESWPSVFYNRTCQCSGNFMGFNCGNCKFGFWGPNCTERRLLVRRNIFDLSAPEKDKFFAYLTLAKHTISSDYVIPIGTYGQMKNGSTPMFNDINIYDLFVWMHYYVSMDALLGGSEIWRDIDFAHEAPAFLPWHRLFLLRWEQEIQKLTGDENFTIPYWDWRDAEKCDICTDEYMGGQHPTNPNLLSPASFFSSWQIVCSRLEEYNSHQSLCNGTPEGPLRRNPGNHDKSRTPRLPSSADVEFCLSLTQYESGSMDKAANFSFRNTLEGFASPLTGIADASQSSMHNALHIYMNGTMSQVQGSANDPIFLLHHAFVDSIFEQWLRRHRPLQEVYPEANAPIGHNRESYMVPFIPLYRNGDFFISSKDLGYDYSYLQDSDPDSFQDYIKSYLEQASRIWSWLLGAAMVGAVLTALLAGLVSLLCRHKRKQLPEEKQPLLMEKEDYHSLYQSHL
Test: dopa-oxidase activity of human melanocyte tyrosinase after 3-day culture of melanocytes with the compound
Type: cell-based
Settings: human melanocytes cultured three days with compound; lysate + 5 mM L-dopa, absorbance at 475 nm (dopachrome), 25° C., 60 minutes; read-out: IC50, concentration of active product required to obtain a 50% inhibition of the production of melanin
Description: After three days, the melanocytes were "trypsinized" in a mixture of trypsin/0.05% EDTA/0.02% in a phosphate buffer (50 mM at pH 6.8), washed three times in phosphate buffer containing 1% (w/v) Triton X-100 and subjected to ultrasound. After centrifugation, samples were taken and mixed with 5 mM L-dopa in phosphate buffer. The tyrosinase activity was evaluated by spectrophotometry by measuring the increase in the absorbance at 475 nm due to the formation of dopachrome from 5 mM dopa. The absorbance was read on a microplate reader at 25° C. for 60 minutes.
The activity of the cellular tyrosinase is measured relative to a standard range prepared with commercial tyrosinase.
The value of IC50, i.e., the concentration of active product required to obtain a 50% inhibition of the production of melanin, is determined.

With `O=C1NC(C(=O)OCc2cc(=O)c(O)co2)CS1` (stereo not shown) [5-hydroxy-4-oxo-4H-pyran-2-ylmethyl 2-oxothiazolidine-4-carboxylate] the IC50 was 200 to 300 µM.
